By IC50 is commonly meant the concentration that gives 50% inhibition.

This note sets out measurements from patent US11161852B1 (Halia Therapeutics, Inc., priority 2020, dated 2021).

Chain of full-length recombinant human NEK7 (Q8TDX7 whole entry): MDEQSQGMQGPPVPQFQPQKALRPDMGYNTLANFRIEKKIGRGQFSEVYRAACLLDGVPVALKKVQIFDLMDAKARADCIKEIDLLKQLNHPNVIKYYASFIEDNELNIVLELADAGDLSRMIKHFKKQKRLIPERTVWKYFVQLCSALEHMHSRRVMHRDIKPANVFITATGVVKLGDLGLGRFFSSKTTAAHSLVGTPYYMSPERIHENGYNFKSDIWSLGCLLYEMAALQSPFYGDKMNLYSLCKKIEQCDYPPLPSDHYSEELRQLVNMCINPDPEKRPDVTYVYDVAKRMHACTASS

For the assay, the target named is full-length recombinant human NEK7 (Homo sapiens (Human), UniProt Q8TDX7). Briefly: NEK7 Enzymatic Assay ([33P]-ATP, casein substrate). Type of assay: biochemical. Here is the method:
Casein substrate (from bovine milk, hydrolyzed and partially dephosphorylated mixture of α, β and a caseins, obtained from Sigma Aldrich, catalogue #C4765, diluted in distilled water to a final concentration of 1 mg/mL) and full-length recombinant human NEK7 (expressed by baculovirus in Sf9 insect cells using a N-terminal GST tag, obtained from SignalChem, catalogue #N09-10G, 0.1 μg/μL) were mixed in assay buffer (20 mM Hepes pH 7.5, 10 mM MgCl2, 1 mM EGTA, 0.02% Brij35, 0.02 mg/ml BSA, 0.1 mM Na3VO4, 2 mM DTT, 1% DMSO). Compounds of interest (serial 3-fold dilution in DMSO from 10 μM to 0.5 nM) or vehicle (1% DMSO) were dispensed into the kinase reaction mixture by Acoustic technology (Echo550; nanoliter range). After incubation at room temperature for 20 minutes, the kinase reaction was initiated by addition of [^33P]-ATP (specific activity […]) and the mixture was incubated at room temperature for 2 hours. The reaction was then stopped by spotting the reaction mixture on strips of phosphocellulose P81 paper. Following washing, the radioactivity of the P81 paper was measured and kinase activity data were expressed as the percent remaining kinase activity in test samples compared to vehicle reactions. IC50 values and curve fits were obtained using Prism (GraphPad Software).
Turning to `Nc1ncnc2c1c(-c1ccc(NC(=O)Nc3cc(C(F)(F)F)no3)c(F)c1)cn2C1CC1` [Example 28, 1-(4-(4-amino-7-cyclopropyl-7H-pyrrolo[2,3-d]pyrimidin-5-yl)-2-fluorophenyl)-3-(3-(trifluoromethyl)isoxazol-5-yl)urea], the IC50 was 151 to 300 nM.

For `Nc1ncnc2c1c(-c1cc(F)c(NC(=O)Nc3cc(C4(C(F)(F)F)CC4)on3)c(F)c1)cn2C1CC1` [Example 60, 1-(4-(4-amino-7-cyclopropyl-7H-pyrrolo[2,3-d]pyrimidin-5-yl)-2,6-difluorophenyl)-3-(5-(1-(trifluoromethyl)cyclopropyl)isoxazol-3-yl)urea], the IC50 was above 1500 nM.

In the case of `CCC(C)c1cc(NC(=O)Nc2ccc(-c3cn(C4CC4)c4ncnc(N)c34)cc2F)on1` (stereo not shown) [Example 30, 1-(4-(4-amino-7-cyclopropyl-7H-pyrrolo[2,3-d]pyrimidin-5-yl)-2-fluorophenyl)-3-(3-(sec-butyl)isoxazol-5-yl)urea], the IC50 was 151 to 300 nM.

For `CC(C)(C)c1nsc(NC(=O)Nc2ccc(-c3cn(C4CC4)c4ncnc(N)c34)cc2F)n1` [Example 21, 1-(4-(4-amino-7-cyclopropyl-7H-pyrrolo[2,3-d]pyrimidin-5-yl)-2-fluorophenyl)-3-(3-(tert-butyl)-1,2,4-thiadiazol-5-yl)urea], the IC50 is above 1500 nM.

For `Nc1ncnc2c1c(-c1ccc(NC(=O)Nc3cc(C4(C(F)(F)F)CC4)no3)cn1)cn2C1CC1` [Example 59, 1-(6-(4-amino-7-cyclopropyl-7H-pyrrolo[2,3-d]pyrimidin-5-yl)pyridin-3-yl)-3-(3-(1-(trifluoromethyl)cyclopropyl)isoxazol-5-yl)urea], the IC50 is above 1500 nM.

Turning to `COCCn1cc(-c2ccc(NC(=O)Nc3cc(C4(C(F)(F)F)CC4)no3)c(F)c2)c2c(N)ncnc21` [Example 51, 1-(4-(4-amino-7-(2-methoxyethyl)-7H-pyrrolo[2,3-d]pyrimidin-5-yl)-2-fluorophenyl)-3-(3-(1-(trifluoromethyl)cyclopropyl)isoxazol-5-yl)urea], the IC50 was below 150 nM.

`Cc1cc(-c2cn(C3CC3)c3ncnc(N)c23)ncc1NC(=O)Nc1cc(C2(C(F)(F)F)CC2)no1` [Example 40, 1-(6-(4-amino-7-cyclopropyl-7H-pyrrolo[2,3-d]pyrimidin-5-yl)-4-methylpyridin-3-yl)-3-(3-(1-(trifluoromethyl)cyclopropyl)isoxazol-5-yl)urea]: the IC50 is above 1500 nM.

Turning to `CC(C)(C)c1nnc(NC(=O)Nc2ccc(-c3cn(C4CC4)c4ncnc(N)c34)cc2F)s1` [Example 19, 1-(4-(4-amino-7-cyclopropyl-7H-pyrrolo[2,3-d]pyrimidin-5-yl)-2-fluorophenyl)-3-(5-(tert-butyl)-1,3,4-thiadiazol-2-yl)urea], the IC50 lay in the range of 301 to 500 nM.

As for `CC(C)(C)c1cc(NC(=O)Nc2ccc(-c3cn(C4COC4)c4ncnc(N)c34)cc2)on1` [Example 1, 1-(4-(4-amino-7-(oxetan-3-yl)-7H-pyrrolo[2,3-d]pyrimidin-5-yl)phenyl)-3-(3-(tert-butyl)isoxazol-5-yl)urea], the IC50 lay within 151 to 300 nM.

For `Nc1ncnc2c1c(-c1ccc(NC(=O)Nc3cc(C4(C(F)(F)F)CC4)no3)c(F)c1)cn2CCO` [Example 52, 1-(4-(4-amino-7-(2-hydroxyethyl)-7H-pyrrolo[2,3-d]pyrimidin-5-yl)-2-fluorophenyl)-3-(3-(1-(trifluoromethyl)cyclopropyl)isoxazol-5-yl)urea], the IC50 is below 150 nM.

For the compound `CC(C)c1cc(NC(=O)Nc2ccc(-c3cn(C4CC4)c4ncnc(N)c34)cc2F)on1` [Example 32, 1-(4-(4-amino-7-cyclopropyl-7H-pyrrolo[2,3-d]pyrimidin-5-yl)-2-fluorophenyl)-3-(3-isopropylisoxazol-5-yl)urea], the IC50 was below 150 nM.

As to `Nc1ncnc2c1c(-c1ccc(NC(=O)Nc3cc(C4(C(F)(F)F)CC4)on3)c(F)c1)cn2CCO` [Example 61, 1-(4-(4-amino-7-(2-hydroxyethyl)-7H-pyrrolo[2,3-d]pyrimidin-5-yl)-2-fluorophenyl)-3-(5-(1-(trifluoromethyl)cyclopropyl)isoxazol-3-yl)urea], the IC50 is below 150 nM.

In the case of `CC(C)(O)Cn1cc(-c2ccc(NC(=O)Nc3cc(C4(C(F)(F)F)CC4)no3)nc2)c2c(N)ncnc21` [Example 46, 1-(5-(4-amino-7-(2-hydroxy-2-methylpropyl)-7H-pyrrolo[2,3-d]pyrimidin-5-yl)pyridin-2-yl)-3-(3-(1-(trifluoromethyl)cyclopropyl)isoxazol-5-yl)urea], the IC50 is below 150 nM.

Take `Cc1cc(NC(=O)Nc2ccc(-c3cn(C4CC4)c4ncnc(N)c34)cc2F)no1` [Example 8, 1-(4-(4-amino-7-cyclopropyl-7H-pyrrolo[2,3-d]pyrimidin-5-yl)-2-fluorophenyl)-3-(5-methylisoxazol-3-yl)urea]: the IC50 is 501 to 1500 nM.

In the case of “1-(4-(4-amino-7-(2-hydroxy-2-methylpropyl)-7H-pyrrolo[2,3-d]pyrimidin-5-yl)-2-fluorophenyl)-3-(5-(1-(trifluoromethyl)cyclopropyl)isoxazol-3-yl)urea [Example 47]”, the half-maximal inhibitory concentration (IC50) is below 150 nM.

As for `Nc1ncnc2c1c(-c1ccc(NC(=O)Nc3cc(C4(C(F)(F)F)CC4)on3)c(F)c1)cn2C1CCC1` [Example 58, 1-(4-(4-amino-7-cyclobutyl-7H-pyrrolo[2,3-d]pyrimidin-5-yl)-2-fluorophenyl)-3-(5-(1-(trifluoromethyl)cyclopropyl)isoxazol-3-yl)urea], the half-maximal inhibitory concentration (IC50) was in the range of 501 to 1500 nM.

Take `CC(C)(c1cc(NC(=O)Nc2ccc(-c3cn(C4CC4)c4ncnc(N)c34)cc2F)on1)C(F)(F)F` [Example 12, 1-(4-(4-amino-7-cyclopropyl-7H-pyrrolo[2,3-d]pyrimidin-5-yl)-2-fluorophenyl)-3-(3-(1,1,1-trifluoro-2-methylpropan-2-yl)isoxazol-5-yl)urea]: the IC50 was 151 to 300 nM.

For the compound `Nc1ncnc2c1c(-c1ccc(NC(=O)Nc3cc(C4(C(F)(F)F)CC4)no3)c(F)c1)cn2-c1ccncc1` [Example 25], the IC50 lay within 501 to 1500 nM.

Regarding `N#Cc1cc(-c2cn(C3CC3)c3ncnc(N)c23)ccc1NC(=O)Nc1cc(C2(C(F)(F)F)CC2)no1` [Example 50, 1-(4-(4-amino-7-cyclopropyl-7H-pyrrolo[2,3-d]pyrimidin-5-yl)-2-cyanophenyl)-3-(3-(1-(trifluoromethyl)cyclopropyl)isoxazol-5-yl)urea], the IC50 was above 1500 nM.

As to `Nc1ncnc2c1c(-c1ccc(NC(=O)Nc3cc(C4(C(F)(F)F)CC4)no3)c(F)c1)cn2C1CCC1` [Example 53, 1-(4-(4-amino-7-cyclobutyl-7H-pyrrolo[2,3-d]pyrimidin-5-yl)-2-fluorophenyl)-3-(3-(1-(trifluoromethyl)cyclopropyl)isoxazol-5-yl)urea], the IC50 is 301 to 500 nM.

As to `CCc1cc(NC(=O)Nc2ccc(-c3cn(C4CC4)c4ncnc(N)c34)cc2F)on1` [Example 33, 1-(4-(4-amino-7-cyclopropyl-7H-pyrrolo[2,3-d]pyrimidin-5-yl)-2-fluorophenyl)-3-(3-ethylisoxazol-5-yl)urea], the IC50 was below 150 nM.

In the case of `CC(C)(C)c1cc(NC(=O)Nc2ccc(-c3cn(C4CC4)c4ncnc(N)c34)cc2F)sn1` [Example 20, 1-(4-(4-amino-7-cyclopropyl-7H-pyrrolo[2,3-d]pyrimidin-5-yl)-2-fluorophenyl)-3-(3-(tert-butyl)isothiazol-5-yl)urea], the IC50 was above 1500 nM.

`CC(C)(C)c1csc(NC(=O)Nc2ccc(-c3cn(C4CC4)c4ncnc(N)c34)cc2F)n1` [Example 18, 1-(4-(4-amino-7-cyclopropyl-7H-pyrrolo[2,3-d]pyrimidin-5-yl)-2-fluorophenyl)-3-(4-(tert-butyl)thiazol-2-yl)urea]: the IC50 is above 1500 nM.

In the case of `Nc1ncnc2c1c(-c1ccc(NC(=O)Nc3cc(C4(C(F)(F)F)CC4)no3)c(F)c1)cn2-c1cccnc1` [Example 24, 1-(4-(4-amino-7-(pyridin-3-yl)-7H-pyrrolo[2,3-d]pyrimidin-5-yl)-2-fluorophenyl)-3-(3-(1-(trifluoromethyl)cyclopropyl)isoxazol-5-yl)urea], the IC50 is 501 to 1500 nM.

On to `Nc1ncnc2c1c(-c1ccc(NC(=O)Nc3cc(C4(C(F)(F)F)CCC4)on3)c(F)c1)cn2C1CC1` [Example 57, 1-(4-(4-amino-7-cyclopropyl-7H-pyrrolo[2,3-d]pyrimidin-5-yl)-2-fluorophenyl)-3-(5-(1-(trifluoromethyl)cyclobutyl)isoxazol-3-yl)urea], for which the IC50 was below 150 nM.

On to `Nc1ncnc2c1c(-c1ccc(NC(=O)Nc3cc(C4(C(F)(F)F)CC4)no3)c(Cl)c1)cn2C1CC1` [Example 54, 1-(4-(4-amino-7-cyclopropyl-7H-pyrrolo[2,3-d]pyrimidin-5-yl)-2-chlorophenyl)-3-(3-(1-(trifluoromethyl)cyclopropyl)isoxazol-5-yl)urea], for which the IC50 is above 1500 nM.

In the case of `CC(C)(C)n1cnc(NC(=O)Nc2ccc(-c3cn(C4CC4)c4ncnc(N)c34)cc2F)n1` [Example 22, 1-(4-(4-amino-7-cyclopropyl-7H-pyrrolo[2,3-d]pyrimidin-5-yl)-2-fluorophenyl)-3-(1-(tert-butyl)-1H-1,2,4-triazol-3-yl)urea], the IC50 is above 1500 nM.

As for `CC(C)(CO)c1cc(NC(=O)Nc2ccc(-c3cn(C4CC4)c4ncnc(N)c34)cc2F)on1` [Example 29, 1-(4-(4-amino-7-cyclopropyl-7H-pyrrolo[2,3-d]pyrimidin-5-yl)-2-fluorophenyl)-3-(3-(1-hydroxy-2-methylpropan-2-yl)isoxazol-5-yl)urea], the IC50 is 301 to 500 nM.
